pEC50: −log10 of the molar value.
What was measured:
[1] = test system: 293T cells; assay: Global myristoylation level, western blot; assay type: cell-based
Experimental: (§1) Protein samples were separated by SDS/PAGE and transferred to the PVDF membrane. The membrane was blocked with 5% BSA in TBST (25 mM Tris, pH 7.4, 150 mM NaCl, 0.1% Tween‐20), incubated with primary antibodies and secondary antibodies in TBST, and then treated with ECL Plus western blotting detection reagents (Bio‐rad). The chemiluminescence signal was analyzed by ChemiDoc imaging system (Bio‐rad).
(§2) HMEC‐1, obtained from Shanghai Zhong Qiao Xin Zhou Biotechnology, was cultured in MCDB131 medium containing 10% foetal bovine serum (FBS) and 1% antibiotics (penicillin and streptomycin) in 5% CO2 incubator at 37 °C. HUVEC, obtained from Shanghai Zhong Qiao Xin Zhou Biotechnology, were cultured in ECM medium containing 5% FBS, 1% antibiotics (penicillin and streptomycin) and 1% endothelial cell growth supplement (ECGS) in 5% CO2 incubator at 37 °C. HEK 293T were obtained from ATCC, and cultured in Dulbecco's modified Eagle's medium (DM EM) containing 10% FBS and 1% antibiotics (penicillin and streptomycin) in 5% CO2 incubator at 37 °C. The SIRT6 KO 293T cells were constructed by Hanbio Biotechnology, the SIRT6 gRNA was 5′‐[…]‐3′. SIRT6 overexpression and knockdown recombinant lentivirus were constructed by Hanbio Biotechnology, the vector pGLV3‐harboring SIRT6 and SIRT6 shRNA (5′‐[…]‐3′) were used for lentivirus packaging. […]

[2] = test system: ATF2 in 293T; assay: ATF2 protein level, western blot; assay type: cell-based; settings: 0–20 µg mL^−1, 12 h, n = 3
Experimental: as §1, §2

[3] = test system: FLAG-tagged ATF2 in 293T cells; assay: ATF2 myristoylation, IP and Click-iT; assay type: cell-based; settings: 10 µg mL^−1, 12 h, n = 3
Experimental: (§3) HMEC‐1, obtained from Shanghai Zhong Qiao Xin Zhou Biotechnology, was cultured in MCDB131 medium containing 10% foetal bovine serum (FBS) and 1% antibiotics (penicillin and streptomycin) in 5% CO2 incubator at 37 °C. HUVEC, obtained from Shanghai Zhong Qiao Xin Zhou Biotechnology, were cultured in ECM medium containing 5% FBS, 1% antibiotics (penicillin and streptomycin) and 1% endothelial cell growth supplement (ECGS) in 5% CO2 incubator at 37 °C. HEK 293T were obtained from ATCC, and cultured in Dulbecco's modified Eagle's medium (DM EM) containing 10% FBS and 1% antibiotics (penicillin and streptomycin) in 5% CO2 incubator at 37 °C. The SIRT6 KO 293T cells were constructed by Hanbio Biotechnology, the SIRT6 gRNA was 5′‐[…]‐3′. SIRT6 overexpression and knockdown recombinant lentivirus were constructed by Hanbio Biotechnology, the vector pGLV3‐harboring SIRT6 and SIRT6 shRNA (5′‐[…]‐3′) were used for lentivirus packaging. The plasmid ATF2WT, ATF2K296R, GFP‐ATF2WT and GFP‐ATF2K296R were synthesized by Hanbio Biotechnology, and the plasmid pUC57‐SIRT6 and all primers were synthesized by Tsingke Biotechnology.
Click chemistry was used for the detection of K296 myristoylation of exogenous ATF2. The click chemistry‐based labeling and detection technology was conducted according to the manufacturer's instructions (Click‐iT Protein Reaction Buffer Kit Invitrogen C10276).

[4] = test system: FLAG‐ATF2 in 293T cells; assay: Nuclear localization of FLAG-ATF2, 293T; assay type: cell-based; settings: 10 µg mL^−1, 12 h, n = 3
Experimental: as §1, §2

[5] = test system: ATF2 in SIRT6 KD HMEC cells; assay: Nuclear localization of ATF2, HMEC; assay type: cell-based; settings: 10 µg mL^−1, 12 h, n = 3; not the K296R mutant
Experimental: as §1, §2

[6] = test system: endogenous ATF2 in HUVECs; assay: Nuclear localization of endogenous ATF2, HUVEC; assay type: cell-based; settings: 10 µg mL^−1, 12 h, n = 3
Experimental: as §1, §2

[7] = test system: VE‐Cadherin and PRKCD in HMEC-1; assay: VE-Cadherin and PRKCD expression, western blot, HMEC-1; assay type: cell-based; settings: 10 µg mL^−1, 12 h, n = 3
Experimental: as §1, §2

[8] = test system: HMEC-1; assay: Transendothelial permeability (transwell, FITC-dextran); assay type: cell-based; settings: 10 µg mL^−1, 12 h; FITC‐dextran 6µg mL^−1, 2 h or 6h, n = 3
Experimental: as §2
HMEC‐1 transfected with relative plasmids were pretreated with ALK14(10 µg mL^−1) for 12 h and were grown on 0.4 µm‐pore transwell filters (Millipore, Bedford, MA) until confluent. […] Fluorescence of media in the lower chamber was detected at 485/530 nm by afluorescence microplate reader (FL × 800, BIO‐TEK Instruments).

[9] = test system: HMEC-1; assay: Intercellular gap formation, VE-Cadherin immunofluorescence; assay type: cell-based; settings: 10 µg mL^−1, 12 h, n = 8–10; prevented by K296R
Experimental: as §3

[10] = test system: HMEC-1; assay: Endothelial-stromal differentiation (CD31 and αSMA western blot); assay type: cell-based; settings: 10 ug/ml, 12h, n=3
Experimental: as §1, §2

[11] = test system: ATF2 localization and PRKCD/VE‐cadherin axis in HUVECs; assay: ALK14 versus myristic acid, ATF2 localization and PRKCD/VE-cadherin axis; assay type: cell-based; settings: each 10 μg/ml, 12 hours
Experimental: as §1, §2

[12] = test system: SIRT6; settings: SIRT6 activator, ref [57]; cited from earlier work
Excerpt: Table 1 The activators of SIRT6 were represented with structure, EC50, category, company, indications, and reference. | column: EC50

SMILES	global myristoylation level, dose dependence ([1]; 0–10 µg mL^−1, 12 hours)	global myristoylation level, ALK14-treated versus untreated ([1]; SIRT6 WT and KO cells, 10 μg/ml)	ATF2 protein level [2]	ATF2 myristoylation level [3]	nuclear FLAG‐ATF2 accumulation [4]	nuclear accumulation of wild‐type ATF2 [5]	ATF2 translocation [6]	PRKCD expression [7]	VE‐cadherin expression [7]	endothelial permeability, ATF2 K296R cells [8]	endothelial permeability, ATF2 WT cells [8]	intercellular gap formation (5 µm/10 µm), ATF2 WT [9]	effect on endothelial‐stromal differentiation [10]	impact on ATF2 localization and PRKCD/VE‐cadherin axis, myristic acid versus ALK14 [11]	pEC50 [12]
C#CCCCCCCCCCCCC(=O)O [ALK14, Alkynyl myristic acid]	dose‐dependent increases	significantly elevated global myristoylation levels	remained stable	significant myristoylation enhancement	significantly reduced nuclear FLAG‐ATF2 accumulation	reduced nuclear accumulation of wild‐type ATF2	translocation of endogenous ATF2 from nucleus to cytoplasm	PRKCD reduction	significantly reduced VE‐cadherin expression	absent in K296R mutants	ALK14‐induced permeability in ATF2 WT cells	ALK14‐induced gap formation	Neither ALK14 nor ATF2 modification influenced endothelial‐stromal differentiation	equivalent impacts	–
